Measurements published in ChEMBL document CHEMBL4400561, “Isolation, structural elucidation, and insights into the anti-inflammatory effects of triterpene saponins from the leaves of Stauntonia hexaphylla” (Bioorg Med Chem Lett, 2019).

Assays:
RAW264.7 [1] = assay: Anti-inflammatory activity in mouse RAW264.7 cells assessed as inhibition of LPS-induced NO production preincubated for 1 hr followed by LPS-stimulation and measured after 18 hrs by Griess reagent-based assay; type: functional, cell-based
RAW264.7 [2] = assay: Cytotoxicity against mouse RAW264.7 cells at anti-inflammatory IC50 after 19 hrs by MTT assay; type: cell-based; conditions: raw264.7, 19 h
RAW264.7 [3] = assay: Anti-inflammatory activity in mouse LPS-stimulated RAW264.7 cells assessed as decrease in PGE2 levels at preincubated for 1 hr followed by LPS-stimulation and measured after 12 hrs by ELISA; type: functional, cell-based
RAW264.7 [4] = assay: Anti-inflammatory activity in mouse LPS-stimulated RAW264.7 cells assessed as decrease in IL1beta levels preincubated for 1 hr followed by LPS-stimulation and measured after 12 hrs by ELISA; type: functional, cell-based
RAW264.7 [5] = assay: Anti-inflammatory activity in mouse LPS-stimulated RAW264.7 cells assessed as decrease in IL6 levels preincubated for 1 hr followed by LPS-stimulation and measured after 12 hrs by ELISA; type: functional, cell-based
RAW264.7 [6] = assay: Anti-inflammatory activity in mouse LPS-stimulated RAW264.7 cells assessed as decrease in TNFalpha levels preincubated for 1 hr followed by LPS-stimulation and measured after 12 hrs by ELISA; type: functional, cell-based
RAW264.7 [7] = assay: Anti-inflammatory activity in mouse LPS-stimulated RAW264.7 cells assessed as decrease in iNOS protein levels preincubated for 1 hr followed by LPS-stimulation and measured after 16 hrs by Western blot analysis; type: functional, cell-based
RAW264.7 [8] = assay: Anti-inflammatory activity in mouse LPS-stimulated RAW264.7 cells assessed as decrease in COX2 protein levels preincubated for 1 hr followed by LPS-stimulation and measured after 16 hrs by Western blot analysis; type: functional, cell-based

C[C@@H]1O[C@@H](O[C@H]2[C@H](O[C@H]3CC[C@]4(C)[C@H]5CC=C6[C@@H]7CC(C)(C)CC[C@]7(C(=O)O)CC[C@@]6(C)[C@]5(C)CC[C@H]4C3(C)C)OC[C@H](O[C@@H]3O[C@H](CO)[C@@H](O)[C@H](O)[C@H]3O)[C@@H]2O)[C@H](O)[C@H](O)[C@H]1O [HEDERACOLCHISIDE A1]
IC50 (RAW264.7 [1]): 590 nM | Activity (RAW264.7 [2]): Non-Toxic | inhibition (RAW264.7 [3]): Dose-dependent effect | inhibition (RAW264.7 [4]): Dose-dependent effect | inhibition (RAW264.7 [5]): Dose-dependent effect | inhibition (RAW264.7 [6]): Dose-dependent effect | inhibition (RAW264.7 [7]): Dose-dependent effect | inhibition (RAW264.7 [8]): Dose-dependent effect
